This test has as its target T1, Human PPARγ2 (Homo sapiens, UniProt P37231).
T1 construct: The full length human cDNA for PPARγ2 and PPARδ were subcloned into the PGEX-2T and PGEX-KT; made in house; host or cells: E. coli (pGEX-2T vector)
T1 sequence (P37231 1-505): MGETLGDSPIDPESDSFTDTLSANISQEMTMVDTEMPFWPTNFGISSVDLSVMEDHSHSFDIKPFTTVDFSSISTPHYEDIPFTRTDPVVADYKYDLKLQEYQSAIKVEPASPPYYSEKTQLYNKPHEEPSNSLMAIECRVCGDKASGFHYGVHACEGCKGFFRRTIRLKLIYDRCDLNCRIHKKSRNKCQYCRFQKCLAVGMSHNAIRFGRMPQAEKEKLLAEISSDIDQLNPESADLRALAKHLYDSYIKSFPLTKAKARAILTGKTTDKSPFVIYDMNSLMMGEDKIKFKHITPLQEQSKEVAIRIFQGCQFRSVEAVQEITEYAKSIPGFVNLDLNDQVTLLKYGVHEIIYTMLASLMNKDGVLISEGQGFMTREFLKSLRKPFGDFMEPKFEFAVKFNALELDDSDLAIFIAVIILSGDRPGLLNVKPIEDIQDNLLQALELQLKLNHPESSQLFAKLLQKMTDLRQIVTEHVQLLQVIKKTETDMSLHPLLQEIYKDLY
Nature of the test: [3H]AD-5075 displacement assay for PPARγ2. As to conditions: gst-fusion human PPARγ2, charcoal separation, ~16 h at 4° C. The test is classed as binding. An excerpt: Compounds of the instant invention which are useful for the above discussed treatments can be identified and/or characterized by employing the PPAR δ, and γ binding assays. The assays are useful in predicting or quantitating in vivo effects having to do with the control or modulation of glucose, free fatty acid, triglyceride, insulin or cholesterol. To evaluate IC50 or EC50, values the compounds were titrated in the appropriate assay using different concentrations of the compound to be tested. To obtain the appropriate values (%Inhibition-IC50, or %Activation-EC50), the data resulting from the assays were then analyzed by determining the best fit of a 4 parameter function to the data using the Levenberg-Marquardt non-linear fitting algorithm in Kaleidagraph (Synergy Software, Reading, Pa.). The human nuclear receptor cDNA for PPARδ (hPPARδ) has been cloned from a human osteosarcoma cell cDNA library and is fully described in A. Schmidt et al., Molecular Endocrinology, 6:1634-1641 (1992), herein incorporated by reference in its entirety. See A. Elbrecht et al., Biochem. and Biophy. Res. Comm. 224:431-437 (1996) and T. Sher et al., Biochem. 32:5598-5604 (1993) for a description of the human nuclear receptor gene PPARγ and α.
Human PPARγ2 and PPARδ, independently, were prepared as gst-fusion proteins in E. coli. […]

Each structure is given as a SMILES string.

`Cc1oc(-c2ccccc2)nc1C(O)COc1ccc(CC2SC(=O)NC2=O)cc1` (stereo not shown) [AD-5075]: the Kd (commonly the constant that tells how readily two partners part at equilibrium) is approximately 1 nM.

Values taken from US6515015B1, “Antidiabetic agents based on aryl and heteroarylacetic acids” (Merck & Co. Inc., priority 1996, dated 2003).
